In patent US20070135375A1, “Sulfamoyl sulfonate prodrugs” (priority 2005, published 2007):
Like-named read-outs stand apart in the source and are kept apart here.

Legend:
[1] = target: human carbonic anhydrase II (Homo sapiens, UniProt P00918); assay: Carbonic anhydrase inhibition, photometric, nitrophenyl acetate conversion (CA II); format: biochemical
Excerpt: (§1) Photometric determination of the inhibition of human carbonic anhydrase I or II with sulfonamides or sulfamates on microtiter plates with the aid of enzymatic conversion of nitrophenyl acetate with a color change from colorless to yellow.

[2] = Hydrolysis in aqueous buffer of various pH values at 37° C., HPLC; format: physicochemical
Procedure: The compounds according to the invention were measured as a DMSO solution in an aqueous buffer of various pH values at 37° C.
(§2) The quantification took place through HPLC (HPLC column: Xterra MS C18 2.5 μm 4.6×30 mm). Based on the test substances to be measured, the following gradient system was used for the HPLC: • Acidic gradient: A: water/0.01% trifluoroacetic acid, B: acetonitrile/0.01% trifluoroacetic acid—0 min 5% B, 0-3 min 65% B, 3-5 min 65% B, 5-6 min 5% B • Alkaline gradient: A: water/0.025% ammonia, B: acetonitrile/0.025% ammonia—0 min 20% B, 0-3 min 80% B, 3-5 min 80% B, 5-6 min 20% B. The quantification took place after 1 and 2 hours and after 24 hours.

[3] = target: human carbonic anhydrase I (Homo sapiens, UniProt P00915); assay: Carbonic anhydrase inhibition, photometric, nitrophenyl acetate conversion (CA I); format: biochemical
Chain of human carbonic anhydrase I (P00915 whole entry): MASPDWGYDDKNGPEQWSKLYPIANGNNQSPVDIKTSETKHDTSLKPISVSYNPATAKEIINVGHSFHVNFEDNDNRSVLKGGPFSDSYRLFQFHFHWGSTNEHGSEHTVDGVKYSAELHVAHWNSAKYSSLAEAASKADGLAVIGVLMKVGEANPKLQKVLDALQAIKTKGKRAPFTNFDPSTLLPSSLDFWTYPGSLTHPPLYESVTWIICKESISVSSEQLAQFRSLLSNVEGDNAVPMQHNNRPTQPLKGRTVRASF
Excerpt: as §1

[4] = Stability in simulated gastric juice (NaCl solution with pepsin, pH~1.2), HPLC; format: physicochemical; settings: 30 min, 37° C., column head pH = 1, cells note pH = 1.2 (gastric juice)
Procedure: as §2, with “hours. Stability in Simulated Gastric Juice:” for “hours.”
Solutions of the compounds according to the invention were incubated at 37° C. in simulated gastric juice (aqueous NaCl solution with pepsin, pH˜1.2).
The quantification took place through HPLC (HPLC-column: Xterra MS C18 2.5 μm 4.6×30 mm) using the gradient system: […]
A: water/0.01% trifluoroacetic acid, B: acetonitrile/0.01% trifluoroacetic acid—0 min 5% B, 0-3 min 65% B, 3-5 min 65% B, 5-6 min 5% B.
The quantification took place after 0.5, 1, 1.5 and 2 hours.

[5] = Solubility in water (kinetic nephelometry / thermodynamic HPLC); format: physicochemical; settings: for solubility: 25 °C, aqueous buffer
Procedure: The compounds according to the invention were measured as 10 mmol DMSO solution in a 0.01 M phosphate buffer solution at pH 7.4 and 25° C. with nephelometry and turbidity.
While in a turbid state, the solution to be tested was added drop by drop to the buffer solution until a precipitate settled.
The precipitate was detected in a dilution series (compounds in a phosphate buffer solution according to the invention) by nephelometry.
b.) Thermodynamic Measurement:
The compounds in solid form according to the invention were added to an excess of an aqueous buffer system of various pH values. It was stirred 24 hours at 25° C. After centrifuging, the solution was examined with HPLC (HPLC: column: Xterra MS C18 2.5 μm, 30×4.6 mm).

[6] = human carbonic anhydrase II, read-out: CA II IC50
[7] = human carbonic anhydrase I, read-out: CA I IC50

Row | Compound | IC50 [1, 6] | Decomposition in % ([2]; pH = 1, 37° C., 1 h) | Decomposition in % ([2]; pH = 1, 37° C., 2 h) | Decomposition in % ([2]; pH = 1, 37° C., 24 h) | Decomposition in % ([2]; pH = 7.4, 37° C., 1 h) | Decomposition in % ([2]; pH = 7.4, 37° C., 2 h) | Decomposition in % ([2]; pH = 7.4, 37° C., 24 h) | IC50 [3, 7] | Decomposition in % [4] | solubility [5] | IC50 [1] | IC50 [3] | Solubility in Water [5] | Solubility in Water (in words) [5]
1 | C[C@]12CC[C@@H]3c4ccc(O)cc4CC[C@H]3[C@@H]1CC[C@@H]2OS(=O)(=O)c1cccc(S(N)(=O)=O)c1 [3-Hydroxyestra-1,3,5(10)-trien-17β-yl 3′-sulfamoylphenyl Sulfonate] | 81 nM | 7% | 14% | 80% | 6% | 13% | 84% | 1700 nM | 4% | 3 µg/mL | – | – | – | –
2 | C[C@]12CC[C@H]3[C@@H](CCC4=CC(=O)CC[C@@]43C)[C@@H]1CC[C@@H]2OS(=O)(=O)c1cccc(S(N)(=O)=O)c1 [3-Oxo-androst-4-en-17β-yl 3′-sulfamoylphenyl Sulfonate] | – | 6% | 11% | 78% | 6% | 12% | 75% | – | 3% | 5 µg/mL | 120 nM | 2300 nM | – | –
3 | C[C@@H]1CC2=CC(=O)CC[C@]2(C)[C@H]2CC[C@]3(C)[C@@H](OS(=O)(=O)c4cccc(S(N)(=O)=O)c4)CC[C@H]3[C@H]12 [3-oxo-7α-methylandrost-4-en-17β-yl 3′-sulfamoylphenyl sulfonate] | 120 nM | 6% | 11% | 71% | 6% | 11% | 70% | 2300 nM | – | – | – | – | About 6 mg/l | –
4 | C[C@]12CC[C@@H]3c4ccc(OS(N)(=O)=O)cc4CC[C@H]3[C@@H]1CC[C@@H]2O [Estradiol-3-sulfamat, Estradiol-3-sulfamate, reference compound] | 34 nM | – | – | – | – | – | – | 157 ± 10.6 nM | – | – | – | – | – | –
5 | CCC(=O)O[C@H]1CC[C@H]2[C@@H]3CCC4=CC(=O)CC[C@]4(C)[C@H]3CC[C@]12C [Testosterone Propionate, 3-Oxoandrost-4-en-17β-yl n-propionate, reference compound] | – | 0% | 0% | 0% | 0% | 0% | 0% | – | 0% | – | – | – | – | insoluble
6 | Zidovudine-sulfamoylphenyl Sulfonate [Zidovudinsulfonat] | 1100 nM | – | – | – | – | – | – | 2900 nM | – | – | – | – | – | –
